The values that follow come from PMC6265983, “Identification and Molecular Docking Study of a Novel Angiotensin-I Converting Enzyme Inhibitory Peptide Derived from Enzymatic Hydrolysates of Cyclina sinensis” (Marine Drugs, 2018).

Like-named read-outs stand apart in the source and are kept apart here. Ends that are not written are not given here.

As a reminder, the IC50 is the concentration needed to halve the response being measured.

Assay [1] relates to ACE. The conditions noted are these: cited from earlier work; for IC50: read-out: IC50, ACE inhibition. The text has this: Marine species account for about half of the world’s total biodiversity. This diversity, together with the availability of marine resources, have driven the search for new antihypertensive agents, which could be administered as functional foods or dietary supplements. Since the first discovery of a marine-derived peptide with ACE-inhibitory activity, researchers have identified a variety of antihypertensive peptides in hydrolysates from marine species, such as Synodus macrops

Assay [2] deals with T1, ACE (from rabbit lung) (Oryctolagus cuniculus, UniProt P12822).
T1 construct: ACE (from rabbit lung); purchased Sigma Chemicals Co. (St. Louis, MO, USA); host or cells: rabbit lung tissue
T1 sequence (P12822 34-1310): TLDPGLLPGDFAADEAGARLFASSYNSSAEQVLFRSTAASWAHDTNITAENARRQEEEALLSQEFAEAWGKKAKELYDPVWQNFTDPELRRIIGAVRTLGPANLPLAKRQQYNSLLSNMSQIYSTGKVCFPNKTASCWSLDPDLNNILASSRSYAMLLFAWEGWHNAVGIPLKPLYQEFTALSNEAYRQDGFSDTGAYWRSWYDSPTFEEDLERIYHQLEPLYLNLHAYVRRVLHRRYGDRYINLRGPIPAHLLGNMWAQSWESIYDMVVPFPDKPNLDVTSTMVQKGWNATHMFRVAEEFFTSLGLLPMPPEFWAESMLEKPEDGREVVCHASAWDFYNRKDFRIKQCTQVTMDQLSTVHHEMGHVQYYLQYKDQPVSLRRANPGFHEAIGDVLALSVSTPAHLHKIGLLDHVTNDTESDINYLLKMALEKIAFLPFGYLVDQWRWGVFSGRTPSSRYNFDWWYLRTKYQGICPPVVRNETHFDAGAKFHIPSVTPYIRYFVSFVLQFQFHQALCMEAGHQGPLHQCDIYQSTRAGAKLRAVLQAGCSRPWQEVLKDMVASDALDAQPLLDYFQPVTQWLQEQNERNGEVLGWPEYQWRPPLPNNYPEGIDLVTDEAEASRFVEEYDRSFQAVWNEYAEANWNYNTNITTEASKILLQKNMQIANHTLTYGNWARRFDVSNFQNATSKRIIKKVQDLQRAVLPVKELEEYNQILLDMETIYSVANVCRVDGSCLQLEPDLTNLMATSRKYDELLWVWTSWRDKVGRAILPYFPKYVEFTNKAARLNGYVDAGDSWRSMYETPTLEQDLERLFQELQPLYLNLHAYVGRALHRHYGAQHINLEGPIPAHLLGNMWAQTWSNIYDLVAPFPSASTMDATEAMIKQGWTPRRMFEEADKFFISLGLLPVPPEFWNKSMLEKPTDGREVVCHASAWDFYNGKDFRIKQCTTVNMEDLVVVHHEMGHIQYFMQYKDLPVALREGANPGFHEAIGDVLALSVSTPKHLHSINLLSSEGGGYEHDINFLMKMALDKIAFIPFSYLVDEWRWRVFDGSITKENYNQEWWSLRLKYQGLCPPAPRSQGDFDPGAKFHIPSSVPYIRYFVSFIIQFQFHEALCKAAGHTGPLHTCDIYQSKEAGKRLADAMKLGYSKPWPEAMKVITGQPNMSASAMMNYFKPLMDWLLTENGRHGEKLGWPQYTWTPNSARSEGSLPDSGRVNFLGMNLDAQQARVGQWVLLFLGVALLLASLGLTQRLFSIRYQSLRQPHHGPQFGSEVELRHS
Briefly: ACE inhibitory activity (HHL substrate, HPLC of hippuric acid). The assay is classed as biochemical. The conditions noted are these: synthetic peptide, 37.5 °C 1 h, HPLC 228 nm, read-out: IC50 value, ACE inhibition. An excerpt: Trypsin (from bovine pancreas, 200 U/mg) and pepsin (from porcine gastric mucosa, 300 U/mg) were purchased from YTHX Biotechnology Co., Ltd. (Beijing, China). ACE (from rabbit lung), and the ACE synthetic substrate hippuryl-L-histidyl-L-leucine (HHL) were purchased from Sigma Chemicals Co. (St. Louis, MO, USA). Other chemicals and reagents used were of analytical grade, except acetonitrile and trifluoroacetic acid (TFA), which were HPLC grade (Sinopharm Chemical Reagent Co., Ltd, Shanghai, China).
To determine the ACE inhibitory activity, we used the method described by D.W.Cushman and Lisete Paiva, with slight modifications. Briefly, 120 μL of 5 mM HHL solution and 20 μL of 1 mg/mL sample solution were mixed thoroughly and pre-incubated for 5 min at 37.5 °C. The control was prepared by replacing the sample solution with 20 μL of 300 mM NaCl in 100 mM borate buffer (pH 8.3). Then, 10 μL of ACE (0.1 U/mL) solution was added, tubes were mixed well, and incubated at 37.5 °C for 1 h in a water bath. […] The reaction solutions were then filtered through a 0.45 μm microporous membrane and quantified by using a ZORBAX SB-C18 analytical column (4.6 mm × 250 mm, 5 μm, 25 °C) and an Agilent HPLC ChemStation, consisting of a G1311C quaternary pump VL, a G1329B standard autosampler, a G1316A column oven, and a G1314F variable wavelength detector. […] Hippuric acid (HA) was detected at 228 nm. […]

The target of assay [3] is T1, ACE (from rabbit lung). Briefly: Stability of ACE inhibitory activity in simulated gastric and intestinal fluid. The assay is classed as in vitro ADME. As to conditions: read-out: ACE inhibitory activity of the control (undigested peptide).
Procedure: Simulated gastric fluid (SGF[sp]): Concentrated hydrochloric acid (37%) was diluted to a 9.5% to 10.5% solution. Then, 800 mL of water and 10 g of pepsin were added to 16.4 mL of this diluted hydrochloric acid solution, mixed well, and the volume completed to 1000 mL with water.
Simulated intestinal fluid (SIF[sp]): 6.8 g of KH2PO4 was dissolved in 500 mL of water, and the pH was adjusted to 6.8 with 0.1 M NaOH. Then ten grams of trypsin were dissolved in an appropriate amount of water, added to the solution described above, and diluted to 1000 mL with water.
The in vitro stability of the ACE inhibitory peptide in the simulated gastrointestinal environments was determined according to the method described by Yu et al [68]. […] (0.5 mg/mL) and incubated for 2 h at 37.5 °C. In addition, the peptide solution was first incubated with SGF[sp] at 37.5 °C for 2 h, the solvent was removed by means of a centrifugal filter concentrator, and was then incubated with SIF[sp] for 2 h. The reaction mixtures were then boiled to inactivate the enzyme. After cooling to room temperature, samples were centrifuged at −4 °C (10000 rpm, 15 min) and the supernatant was adjusted to pH = 7 for the determination of the ACE inhibitory activity.
[4] abbreviates: from scorpion (Hemiscorpius lepturus) venom.

As to AFPYYGHHLG, the ACE inhibition mode result in assay [1] (setting [4]) is “competitive”.

Take “AGPPGSDGQPGAK [antihypertensive peptide from Synodus macrops hydrolysate]”: in assay [1] (peptide from Synodus macrops), the IC50 was 420 µM.

Turning to Arg-Tyr-Leu [RYL], the ACE inhibition mode result in assay [1] (from Silkworm Pupa) is “competitive”.

Take “IGPR [antihypertensive peptide from Salmo salar]”: the IC50 in assay [1] (peptides from Salmo salar) was 430 µM.

Take “SSSKAKKMP [antihypertensive peptide from shrimps]”: in assay [1] (peptide from shrimps), the IC50 is 880 µM.

As to Tyr-Gln-Lys [YQK], in assay [1] (from bovine casein), the ACE inhibition mode result is given as “competitive”.

As to VVSLSIPR, in assay [1] (from pigeon pea (Cajanus cajan)), the ACE inhibition mode result was “competitive”.

Consider WPMGF [WPMGF, Trp-Pro-Met-Gly-Phe], for which the IC50 in assay [2] is 789 µM. The inhibition at 500 µg/mL in assay [3] is 51.5 ± 0.72%.

Regarding YLYELAR [YLYELAR], the ACE inhibition mode result in assay [1] (setting [4]) is reported as “competitive”.
